In ChEMBL document CHEMBL1201862, “PubChem BioAssay data set” (2004):
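Compound exposure: 48 hours, 5 concentrations, 96-well plates. Abbreviation: GI50, concentration required for 50% inhibition of growth.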 Calls of active or inactive are those of the source. Cut-off read from the data, not from the text of the source: active = GI50 up to about 1.1 µM and inactive = higher. Where a SMILES comes first, the peptide text is derived from it. Bridges are numbered along the chain shown (N, C = ends). [ ]: non-standard residue; d: D form. The star is where a group is joined. ξ: configuration not given here. PhAc = O=C(Cc1ccccc1)*; ξP = O=C(O)C1CCCN1

Assays:
Test in all cases: NCI tumour cell line growth inhibition, 48 h
SW-620 = test system: SW-620
OVCAR-4 = test system: OVCAR-4
COLO 205 = test system: COLO 205
HOP-92 = test system: HOP-92
NCI-H460 = test system: NCI-H460
TK-10 = test system: TK-10
SF-295 = test system: SF-295
NCI-H226 = test system: NCI-H226
SN12C = test system: SN12C
MOLT-4 = test system: MOLT-4
HOP-62 = test system: HOP-62
CCRF-CEM = test system: CCRF-CEM
SK-OV-3 = test system: SK-OV-3
RPMI-8226 = test system: RPMI-8226
786-0 = test system: 786-0
NCI-H522 = test system: NCI-H522
NCI-H23 = test system: NCI-H23
ACHN = test system: ACHN
DU-145 = test system: DU-145
MDA-N = test system: MDA-N

Row | Structure (SMILES) | GI50 (SW-620) | GI50 (OVCAR-4) | GI50 (COLO 205) | GI50 (HOP-92) | GI50 (NCI-H460) | GI50 (TK-10) | GI50 (SF-295) | GI50 (NCI-H226) | GI50 (SN12C) | GI50 (MOLT-4) | GI50 (HOP-62) | GI50 (CCRF-CEM) | GI50 (SK-OV-3) | GI50 (RPMI-8226) | GI50 (786-0) | GI50 (NCI-H522) | GI50 (NCI-H23) | GI50 (ACHN) | GI50 (DU-145) | GI50 (MDA-N)
1 | COc1ccccc1NC(=O)C1=C(C)NC(C)=C(C(=O)Nc2ccccc2OC)C1c1ccc(N(C)C)cc1 | 36.3 µM (inactive) | 29.6 µM (inactive) | 31 µM (inactive) | 6.52 µM (inactive) | 27.5 µM (inactive) | 34.8 µM (inactive) | 38 µM (inactive) | 19.6 µM (inactive) | 26.9 µM (inactive) | 18.8 µM (inactive) | 22.3 µM (inactive) | 19.3 µM (inactive) | 38.7 µM (inactive) | 16.6 µM (inactive) | 33.8 µM (inactive) | 17.6 µM (inactive) | 21.3 µM (inactive) | 33 µM (inactive) | – | –
2 | N#Cc1c(-c2ccc(Cl)cc2)cc(-c2ccc(Nc3ccnc4cc(Cl)ccc34)cc2)nc1N | > 100 µM (inactive) | 38.2 µM (inactive) | > 100 µM (inactive) | > 100 µM (inactive) | > 100 µM (inactive) | > 100 µM (inactive) | > 100 µM (inactive) | > 100 µM (inactive) | – | – | > 100 µM (inactive) | – | > 100 µM (inactive) | > 100 µM (inactive) | > 100 µM (inactive) | 41.7 µM (inactive) | > 100 µM (inactive) | > 100 µM (inactive) | > 100 µM (inactive) | –
3 | CC(=O)NNc1nc(C)c(C(=O)NNC(=O)C(=O)Nc2c(C)cccc2C(C)C)s1 | 55.3 µM (inactive) | 32.8 µM (inactive) | > 100 µM (inactive) | 78 µM (inactive) | 86.3 µM (inactive) | > 100 µM (inactive) | 89.9 µM (inactive) | 79.4 µM (inactive) | > 100 µM (inactive) | 44.4 µM (inactive) | > 100 µM (inactive) | 34.5 µM (inactive) | > 100 µM (inactive) | 57.5 µM (inactive) | > 100 µM (inactive) | 35.4 µM (inactive) | > 100 µM (inactive) | 60.1 µM (inactive) | – | –
4 | Cc1ccccc1NC(=O)c1c(C)oc2c1C(=O)c1ccccc1C2=O | 19.7 µM (inactive) | 2.09 µM (inactive) | 53.3 µM (inactive) | 20.3 µM (inactive) | 32.4 µM (inactive) | > 100 µM (inactive) | 40.3 µM (inactive) | > 38.7 µM (inactive) | > 53.7 µM (inactive) | 20.1 µM (inactive) | > 56.1 µM (inactive) | 19.4 µM (inactive) | > 100 µM (inactive) | 22.6 µM (inactive) | 27 µM (inactive) | 16.5 µM (inactive) | 29.7 µM (inactive) | 36.9 µM (inactive) | – | –
5 | CC(C)(C)OC(=O)C1/C(=C/CO)CN1C(=O)OC(C)(C)C (centres undefined) | > 100 µM (inactive) | 63.7 µM (inactive) | > 100 µM (inactive) | > 100 µM (inactive) | > 100 µM (inactive) | > 100 µM (inactive) | > 100 µM (inactive) | – | > 100 µM (inactive) | 57.3 µM (inactive) | > 100 µM (inactive) | 76.2 µM (inactive) | > 100 µM (inactive) | > 100 µM (inactive) | > 100 µM (inactive) | – | > 100 µM (inactive) | > 100 µM (inactive) | – | > 100 µM (inactive)
6 | CC1(O)CC23CC(O)C4(O)C(CC(O)C4(C)C)C(C)(O)C2CCC1C3O (centres undefined) | > 100 µM (inactive) | > 100 µM (inactive) | > 100 µM (inactive) | > 100 µM (inactive) | > 100 µM (inactive) | > 100 µM (inactive) | > 100 µM (inactive) | > 100 µM (inactive) | > 100 µM (inactive) | > 100 µM (inactive) | – | > 100 µM (inactive) | > 100 µM (inactive) | – | > 100 µM (inactive) | > 100 µM (inactive) | > 100 µM (inactive) | > 100 µM (inactive) | > 100 µM (inactive) | –
7 | O=C1C(Cl)=C(Cl)C(=O)C(CCNc2nccs2)=C1Cl | 29.4 µM (inactive) | > 100 µM (inactive) | 32.8 µM (inactive) | 22.1 µM (inactive) | > 100 µM (inactive) | 29.2 µM (inactive) | > 100 µM (inactive) | – | 29.3 µM (inactive) | 51.4 µM (inactive) | > 100 µM (inactive) | 0.335 µM (active) | > 100 µM (inactive) | – | 23.3 µM (inactive) | 13.1 µM (inactive) | 31.2 µM (inactive) | 27.4 µM (inactive) | 58.7 µM (inactive) | –
8 | CC(NC(=O)OC(C)(C)C)C(=O)C(N)=O (centres undefined) | > 100 µM (inactive) | – | > 100 µM (inactive) | > 100 µM (inactive) | > 100 µM (inactive) | > 100 µM (inactive) | – | > 100 µM (inactive) | > 100 µM (inactive) | > 100 µM (inactive) | > 100 µM (inactive) | > 100 µM (inactive) | > 100 µM (inactive) | > 100 µM (inactive) | > 100 µM (inactive) | – | > 100 µM (inactive) | > 100 µM (inactive) | > 100 µM (inactive) | > 100 µM (inactive)
9 | C/C(=N\N=C(N)N)c1c(C(=O)OCCCCCCOC(=O)c2nc3sccn3c2/C(C)=N/N=C(N)N)nc2sccn12 | > 100 µM (inactive) | > 100 µM (inactive) | > 100 µM (inactive) | > 100 µM (inactive) | > 100 µM (inactive) | 22.8 µM (inactive) | – | > 100 µM (inactive) | > 100 µM (inactive) | 32.2 µM (inactive) | – | 20.5 µM (inactive) | – | 85.3 µM (inactive) | 41.9 µM (inactive) | > 100 µM (inactive) | 46.1 µM (inactive) | > 100 µM (inactive) | – | > 100 µM (inactive)
10 | O=C1C=C(Nc2ccc(S(=O)(=O)Nc3ncccn3)cc2)c2ccccc2C1=O | 19.5 µM (inactive) | 21.8 µM (inactive) | 22.5 µM (inactive) | 33 µM (inactive) | 20.7 µM (inactive) | 37.4 µM (inactive) | 20.6 µM (inactive) | 28.4 µM (inactive) | 21.5 µM (inactive) | 48.5 µM (inactive) | 24.5 µM (inactive) | 26.3 µM (inactive) | 26.7 µM (inactive) | 37.6 µM (inactive) | 19.8 µM (inactive) | 17.8 µM (inactive) | 17.4 µM (inactive) | 27 µM (inactive) | – | –
11 | C=CCN(C(=O)CNC(=O)C(F)(F)F)c1cc(OCc2ccccc2)c2c(c1)c(C)cn2S(=O)(=O)c1ccccc1 | – | 9.16 µM (inactive) | 8.02 µM (inactive) | 4.92 µM (inactive) | > 30.5 µM (inactive) | > 100 µM (inactive) | 23 µM (inactive) | > 34.8 µM (inactive) | > 100 µM (inactive) | 4.16 µM (inactive) | > 100 µM (inactive) | 0.139 µM (active) | > 100 µM (inactive) | 4.73 µM (inactive) | > 100 µM (inactive) | 6.19 µM (inactive) | > 87.7 µM (inactive) | > 26 µM (inactive) | > 100 µM (inactive) | –
12 | CC1=CC(=O)C(=CN2C(=O)/C(=C\c3cccnc3)NC2=S)C(=O)O1 | > 100 µM (inactive) | > 100 µM (inactive) | > 100 µM (inactive) | > 100 µM (inactive) | > 100 µM (inactive) | > 100 µM (inactive) | > 100 µM (inactive) | > 100 µM (inactive) | > 100 µM (inactive) | > 100 µM (inactive) | > 100 µM (inactive) | – | > 100 µM (inactive) | – | > 100 µM (inactive) | – | > 100 µM (inactive) | > 100 µM (inactive) | > 100 µM (inactive) | > 100 µM (inactive)
13 | COc1cc(/C=N/n2c(Cc3ccc(Cl)cc3)n[nH]c2=O)cc(OC)c1OC | > 100 µM (inactive) | > 100 µM (inactive) | > 100 µM (inactive) | – | 33.5 µM (inactive) | – | > 100 µM (inactive) | > 100 µM (inactive) | > 100 µM (inactive) | > 100 µM (inactive) | 37.6 µM (inactive) | > 100 µM (inactive) | > 100 µM (inactive) | – | > 100 µM (inactive) | – | > 100 µM (inactive) | > 100 µM (inactive) | – | > 100 µM (inactive)
14 | COc1ccc(C2=Nc3cc(C)c(C)cc3NC(c3ccccc3)C2)cc1 (centres undefined) | > 100 µM (inactive) | > 100 µM (inactive) | 17.7 µM (inactive) | 24.1 µM (inactive) | 46.2 µM (inactive) | > 100 µM (inactive) | > 100 µM (inactive) | > 100 µM (inactive) | > 100 µM (inactive) | 16.3 µM (inactive) | > 100 µM (inactive) | 17.3 µM (inactive) | > 100 µM (inactive) | 15.9 µM (inactive) | > 100 µM (inactive) | 30.8 µM (inactive) | > 100 µM (inactive) | > 100 µM (inactive) | > 100 µM (inactive) | –
15 | O=C(Cc1ccccc1)N[C@@H]1COC(=O)C2CCCN2C(=O)[C@@H]2CCCN2C1=O (some centres undefined) (PhAc-[dS]-Pro-[ξP]; ester 1-C) | > 100 µM (inactive) | > 100 µM (inactive) | > 100 µM (inactive) | > 100 µM (inactive) | > 100 µM (inactive) | > 100 µM (inactive) | > 100 µM (inactive) | > 100 µM (inactive) | > 100 µM (inactive) | > 100 µM (inactive) | > 100 µM (inactive) | > 100 µM (inactive) | > 100 µM (inactive) | – | > 100 µM (inactive) | – | > 100 µM (inactive) | > 100 µM (inactive) | > 100 µM (inactive) | > 100 µM (inactive)
